The numbers were not newly measured in patent US20110301202A1, “SPLA2 INHIBITOR CONJUGATE COMPOUNDS AND METHODS OF USE” (priority 2010, published 2011), which cites them from elsewhere.

The conditions of data set [1]: following administration.
Setting [2] is: once- or twice-daily, stable CVD population, also diabetic and high baseline LDL-C subpopulations.

For the compound `CCc1c(C(=O)C(N)=O)c2c(OCC(=O)OC)cccc2n1Cc1ccccc1` [A-002, [[3-(2-Amino-1,2-dioxoethyl)-2-ethyl-1-(phenylmethyl)-1H-indol-4-yl]oxy]acetic acid methyl ester], the “absorption and hydrolysis of prodrug to A-001” value in data set [1] was “rapidly absorbed and hydrolyzed to A-001”. For the same compound, the lipid levels entry (humans) is reported as “decreases”. Moreover, under setting [2], the LDL-C result is given as “decreases”, the inflammatory marker levels entry is “decreases”, the “small LDL-C particle levels” value is given as “decreases” and the “total LDL-C particle levels” value is “decreases”. Under setting [2], the total cholesterol entry was “decreases”.
